{"source": "patent US20260365642A1", "about": "“ANTIPARASITIC COMPOUNDS” (Animol Discovery, Inc., priority 2023, published 2026)", "data": [{"system": "Dirofilaria immitis L1 larvae", "assay": "Screening against microfilaria (L1 larvae) of Dirofilaria immitis, survival/motility", "type": "in vivo", "conditions": "72 h, read-out: Ranked D. immitis L1 MED Activity", "procedure": "Example 44. Screening of Compounds Against Microfilaria of Dirofilaria immitis\nTo evaluate the efficacy of compounds of the disclosure against Dirofilaria immitis, L1 stage larvae were exposed to various concentrations of the compounds to determine survival or paralysis of the larvae. Results are reported as the minimum effective dose (MED), defined as the concentration required to eliminate motility.\nTo perform the assay, microfilaria of Dirofilaria immitis were added to the wells of a microtiter plate containing buffer and the test compounds in DMSO. Microfilaria exposed to DMSO alone served as controls. An assessment was conducted at 72 hours to determine survival of the microfilaria.", "units": {"minimal effective concentration": "µM"}, "values": [{"smiles": "CN(Cc1ccc(S(=O)(=O)N(C)C)cc1)c1cc(N2CCCC3(CCCCC3)C2)nc(C(F)(F)F)n1", "note": "[Compound 5, 4-(((6-(2-azaspiro[5.5]undecan-2-yl)-2-(trifluoromethyl)pyrimidin-4-yl)(methyl)amino)methyl)-N,N-dimethylbenzenesulfonamide]", "minimal effective concentration": "> 100000"}, {"smiles": "COC(=O)N1CCCC(CN(C)c2cc(N3CCCC4(CCCCC4)C3)nc(C(F)(F)F)n2)C1", "note": "(stereo not shown) [Compound 36, methyl 3-(((6-(2-azaspiro[5.5]undecan-2-yl)-2-(trifluoromethyl)pyrimidin-4-yl)(methyl)amino)methyl)piperidine-1-carboxylate]", "minimal effective concentration": "> 100000"}, {"smiles": "CN(CC1CN(S(C)(=O)=O)CCO1)c1cc(N2CC3CCC(C2)O3)nc(C(F)(F)F)n1", "note": "(stereo not shown) [Compound 17, 6-(8-oxa-3-azabicyclo[3.2.1]octan-3-yl)-N-methyl-N-((4-(methylsulfonyl)morpholin-2-yl)methyl)-2-(trifluoromethyl)pyrimidin-4-amine]", "minimal effective concentration": "> 100000"}, {"smiles": "CN(CC1CN(S(C)(=O)=O)CCO1)c1cc(N2CCS(=O)(=O)C3(CCCCC3)C2)nc(C(F)(F)F)n1", "note": "(stereo not shown) [Compound 27, 4-(6-(methyl((4-(methylsulfonyl)morpholin-2-yl)methyl)amino)-2-(trifluoromethyl)pyrimidin-4-yl)-1-thia-4-azaspiro[5.5]undecane 1,1-dioxide]", "minimal effective concentration": "< 30000"}, {"smiles": "CN(CC1CN(S(C)(=O)=O)CCCO1)c1cc(N2CCOC3(CCCCC3)C2)nc(C(F)(F)F)n1", "note": "(stereo not shown) [Compound 31, N-methyl-N-((4-(methylsulfonyl)-1,4-oxazepan-2-yl)methyl)-6-(1-oxa-4-azaspiro[5.5]undecan-4-yl)-2-(trifluoromethyl)pyrimidin-4-amine]", "minimal effective concentration": "< 30000"}, {"smiles": "CS(=O)(=O)N1CCOC(CN(Cc2ccccc2)c2cc(N3CCOC4(CCCCC4)C3)nc(C(F)(F)F)n2)C1", "note": "(stereo not shown) [Compound 19, N-benzyl-N-((4-(methylsulfonyl)morpholin-2-yl)methyl)-6-(1-oxa-4-azaspiro[5.5]undecan-4-yl)-2-(trifluoromethyl)pyrimidin-4-amine]", "minimal effective concentration": "> 100000"}, {"smiles": "CN(CC1CN(S(C)(=O)=O)CCC1(F)F)c1cc(N2CCCC3(CCCCC3)C2)nc(C(F)(F)F)n1", "note": "(stereo not shown) [Compound 41, N-((4,4-difluoro-1-(methylsulfonyl)piperidin-3-yl)methyl)-N-methyl-6-(2-azaspiro[5.5]undecan-2-yl)-2-(trifluoromethyl)pyrimidin-4-amine]", "minimal effective concentration": "< 30000"}, {"smiles": "CN(CC1CN(S(C)(=O)=O)CCCO1)c1cc(N2CCCC3(CCCCC3)C2)nc(C(F)(F)F)n1", "note": "(stereo not shown) [Compound 35, N-methyl-N-((4-(methylsulfonyl)-1,4-oxazepan-2-yl)methyl)-6-(2-azaspiro[5.5]undecan-2-yl)-2-(trifluoromethyl)pyrimidin-4-amine]", "minimal effective concentration": "< 10000"}, {"smiles": "CN(CCOc1ccccc1)c1cc(N2CCCC3(CCCCC3)C2)nc(C(F)(F)F)n1", "note": "[Compound 8, N-methyl-N-(2-phenoxyethyl)-6-(2-azaspiro[5.5]undecan-2-yl)-2-(trifluoromethyl)pyrimidin-4-amine]", "minimal effective concentration": "> 100000"}, {"smiles": "CN(CCN1CCCS1(=O)=O)c1cc(N2CCCC3(CCCCC3)C2)nc(C(F)(F)F)n1", "note": "[Compound 11, 2-(2-((6-(2-azaspiro[5.5]undecan-2-yl)-2-(trifluoromethyl)pyrimidin-4-yl)(methyl)amino)ethyl)isothiazolidine 1,1-dioxide]", "minimal effective concentration": "< 30000"}, {"smiles": "CN(CC1CN(S(C)(=O)=O)CCS1)c1cc(N2CCOC3(CCCCC3)C2)nc(C(F)(F)F)n1", "note": "(stereo not shown) [Compound 26, N-methyl-N-((4-(methylsulfonyl)thiomorpholin-2-yl)methyl)-6-(1-oxa-4-azaspiro[5.5]undecan-4-yl)-2-(trifluoromethyl)pyrimidin-4-amine]", "minimal effective concentration": "< 30000"}, {"smiles": "CN(CC1CN(S(C)(=O)=O)CCC1(F)F)c1cc(N2CCC(F)(F)C3(CCCCC3)C2)nc(C(F)(F)F)n1", "note": "(stereo not shown) [Compound 22, N-((4,4-difluoro-1-(methylsulfonyl)piperidin-3-yl)methyl)-6-(5,5-difluoro-2-azaspiro[5.5]undecan-2-yl)-N-methyl-2-(trifluoromethyl)pyrimidin-4-amine]", "minimal effective concentration": "> 100000"}, {"smiles": "CN(CC1CN(S(C)(=O)=O)C1)c1cc(N2CCCC3(CCCCC3)C2)nc(C(F)(F)F)n1", "note": "[Compound 13, N-methyl-N-((1-(methylsulfonyl)azetidin-3-yl)methyl)-6-(2-azaspiro[5.5]undecan-2-yl)-2-(trifluoromethyl)pyrimidin-4-amine]", "minimal effective concentration": "< 10000"}, {"smiles": "CS(=O)(=O)N1CCOC(CNc2cc(N3CCCC4(CCCCC4)C3)nc(C(F)(F)F)n2)C1", "note": "(stereo not shown) [Compound 15, N-((4-(methylsulfonyl)morpholin-2-yl)methyl)-6-(2-azaspiro[5.5]undecan-2-yl)-2-(trifluoromethyl)pyrimidin-4-amine]", "minimal effective concentration": "< 10000"}, {"smiles": "CN(CCC1CN(S(C)(=O)=O)CCO1)c1cc(N2CCCC3(CCCCC3)C2)nc(C(F)(F)F)n1", "note": "(stereo not shown) [Compound 44, N-methyl-N-(2-(4-(methylsulfonyl)morpholin-2-yl)ethyl)-6-(2-azaspiro[5.5]undecan-2-yl)-2-(trifluoromethyl)pyrimidin-4-amine]", "minimal effective concentration": "> 100000"}, {"smiles": "CS(=O)(=O)N1CCOC2CN(c3cc(N4CCOC5(CCCCC5)C4)nc(C(F)(F)F)n3)CCC21", "note": "(stereo not shown) [Compound 34, 4-(6-(1-(methylsulfonyl)octahydro-6H-pyrido[3,4-b][1,4]oxazin-6-yl)-2-(trifluoromethyl)pyrimidin-4-yl)-1-oxa-4-azaspiro[5.5]undecane]", "minimal effective concentration": "< 30000"}, {"smiles": "CN(CC1CN(S(C)(=O)=O)CCO1)c1cc(N2CC3CC(C2)O3)nc(C(F)(F)F)n1", "note": "(stereo not shown) [Compound 18, 6-(6-oxa-3-azabicyclo[3.1.1]heptan-3-yl)-N-methyl-N-((4-(methylsulfonyl)morpholin-2-yl)methyl)-2-(trifluoromethyl)pyrimidin-4-amine]", "minimal effective concentration": "> 100000"}, {"smiles": "CN(CC1CN(S(C)(=O)=O)CCS1(=O)=O)c1cc(N2CCS(=O)(=O)C3(CCCCC3)C2)nc(C(F)(F)F)n1", "note": "(stereo not shown) [Compound 29, 4-(6-(methyl((4-(methylsulfonyl)-1,1-dioxidothiomorpholin-2-yl)methyl)amino)-2-(trifluoromethyl)pyrimidin-4-yl)-1-thia-4-azaspiro[5.5]undecane 1,1-dioxide]", "minimal effective concentration": "< 30000"}, {"smiles": "CN(C)S(=O)(=O)N1CC2(CN(c3cc(N4CCCC5(CCCCC5)C4)nc(C(F)(F)F)n3)C2)C1", "note": "[Compound 10, 6-(6-(2-azaspiro[5.5]undecan-2-yl)-2-(trifluoromethyl)pyrimidin-4-yl)-N,N-dimethyl-2,6-diazaspiro[3.3]heptane-2-sulfonamide]", "minimal effective concentration": "> 100000"}, {"smiles": "CN(CC1CN(S(=O)(=O)C2CC2)CCO1)c1cc(N2CCOC3(CCCCC3)C2)nc(C(F)(F)F)n1", "note": "(stereo not shown) [Compound 32, N-((4-(cyclopropylsulfonyl)morpholin-2-yl)methyl)-N-methyl-6-(1-oxa-4-azaspiro[5.5]undecan-4-yl)-2-(trifluoromethyl)pyrimidin-4-amine]", "minimal effective concentration": "< 10000"}, {"smiles": "CN(CC1CN(S(C)(=O)=O)CCO1)c1cc(N2CCOC3(CCCC3)C2)nc(C(F)(F)F)n1", "note": "(stereo not shown) [Compound 16, N-methyl-N-((4-(methylsulfonyl)morpholin-2-yl)methyl)-6-(6-oxa-9-azaspiro[4.5]decan-9-yl)-2-(trifluoromethyl)pyrimidin-4-amine]", "minimal effective concentration": "< 30000"}, {"smiles": "CN(CC1CN(S(C)(=O)=O)CCC1(F)F)c1cc(N2CCOC3(CCCCC3)C2)nc(C(F)(F)F)n1", "note": "(stereo not shown) [Compound 24, N-((4,4-difluoro-1-(methylsulfonyl)piperidin-3-yl)methyl)-N-methyl-6-(1-oxa-4-azaspiro[5.5]undecan-4-yl)-2-(trifluoromethyl)pyrimidin-4-amine]", "minimal effective concentration": "< 10000"}, {"smiles": "CCN(CC1CN(S(C)(=O)=O)CCO1)c1cc(N2CCOC3(CCCCC3)C2)nc(C(F)(F)F)n1", "note": "(stereo not shown) [Compound 20, N-ethyl-N-((4-(methylsulfonyl)morpholin-2-yl)methyl)-6-(1-oxa-4-azaspiro[5.5]undecan-4-yl)-2-(trifluoromethyl)pyrimidin-4-amine]", "minimal effective concentration": "< 10000"}, {"smiles": "CN(CC1CN(S(C)(=O)=O)CCO1)c1cc(N2CCOC3(CCC(F)(F)CC3)C2)nc(C(F)(F)F)n1", "note": "(stereo not shown) [Compound 21, 6-(9,9-difluoro-1-oxa-4-azaspiro[5.5]undecan-4-yl)-N-methyl-N-((4-(methylsulfonyl)morpholin-2-yl)methyl)-2-(trifluoromethyl)pyrimidin-4-amine]", "minimal effective concentration": "< 10000"}, {"smiles": "CN(CC1CN(S(C)(=O)=O)CCO1)c1cc(N2CCOC3(CCCCC3)C2)nc(C(F)(F)F)n1", "note": "(racemic) [Compound 4, (R) and (S)-N-methyl-N-((4-(methylsulfonyl)morpholin-2-yl)methyl)-6-(1-oxa-4-azaspiro[5.5]undecan-4-yl)-2-(trifluoromethyl)pyrimidin-4-amine]", "minimal effective concentration": "< 30000"}, {"smiles": "CN(CC1CCCN(S(C)(=O)=O)C1)c1cc(N2CCCC3(CCCCC3)C2)nc(C(F)(F)F)n1", "note": "(stereo not shown) [Compound 14, N-methyl-N-((1-(methylsulfonyl)piperidin-3-yl)methyl)-6-(2-azaspiro[5.5]undecan-2-yl)-2-(trifluoromethyl)pyrimidin-4-amine]", "minimal effective concentration": "> 100000"}, {"smiles": "CCS(=O)(=O)N1CCOC(CN(C)c2cc(N3CCOC4(CCCCC4)C3)nc(C(F)(F)F)n2)C1", "note": "(stereo not shown) [Compound 33, N-((4-(ethylsulfonyl)morpholin-2-yl)methyl)-N-methyl-6-(1-oxa-4-azaspiro[5.5]undecan-4-yl)-2-(trifluoromethyl)pyrimidin-4-amine]", "minimal effective concentration": "< 10000"}, {"smiles": "CS(=O)(=O)N1CCOC(CN(Cc2ccccc2)c2cc(N3CCCC4(CCCCC4)C3)nc(C(F)(F)F)n2)C1", "note": "(stereo not shown) [Compound 37, N-benzyl-N-((4-(methylsulfonyl)morpholin-2-yl)methyl)-6-(2-azaspiro[5.5]undecan-2-yl)-2-(trifluoromethyl)pyrimidin-4-amine]", "minimal effective concentration": "> 100000"}]}]}
